Data set [1] can be described thus: logP determination by HPLC (EEC direction 79/831 Annex V. A8). The format is physicochemical. The settings on record: eluent not stated.
In the next data set the test system is Sphaerotheca fuliginea. The data set can be described thus: Sphaerotheca Test (cucumber)/Protective. The settings on record: protective, application rate 100 g/ha, evaluation 10 days after inoculation. In kind it is in vivo. As for the experimental part: Sphaerotheca Test (cucumber)/Protective
(§1) To produce a suitable preparation of active compound, 1 part by weight of active compound is mixed with the stated amounts of solvent and emulsifier, and the concentrate is diluted with water to the desired concentration.
To test for protective activity, young plants are sprayed with the preparation of active compound at the stated application rate. After the spray coating has dried on, the plants are inoculated with an aqueous spore suspension of Sphaerotheca fuliginea. The plants are then placed in a greenhouse at approximately 23° C. and a relative atmospheric humidity of approximately 70%.
Evaluation is carried out 10 days after the inoculation. 0% means an efficacy which corresponds to that of the control, whereas an efficacy of 100% means that no infection is observed.

The next data set deals with Venturia inaequalis. Briefly: Venturia Test (apple)/Protective. In kind it is in vivo. The settings on record: protective, application rate 10 g/ha, evaluation 12 days after inoculation. On the procedure:
Venturia Test (apple)/Protective
as §1
To test for protective activity, young plants are sprayed with the preparation of active compound at the stated application rate. After the spray coating has dried on, the plants are inoculated with an aqueous conidia suspension of the causative organism of apple scab Venturia inaequalis and then remain in an incubation cabin at approximately 20° C. and 100% relative atmospheric humidity for 1 day.
The plants are then placed in a greenhouse at approximately 21° C. and a relative atmospheric humidity of approximately 90%.
Evaluation is carried out 12 days after the inoculation. 0% means an efficacy which corresponds to that of the control, whereas an efficacy of 100% means that no infection is observed.

The subject of the next data set is Plasmopara viticola. Briefly: Plasmopara Test (grapevine)/Protective. In kind it is in vivo. The settings on record: protective, application rate 100 g/ha, evaluation 6 days after inoculation. On the procedure: Plasmopara Test (grapevine)/Protective
as §1
To test for protective activity, young plants are sprayed with the preparation of active compound at the stated application rate. After the spray coating has dried on, the plants are inoculated with an aqueous spore suspension of Plasmopara viticola and then remain in an incubation cabin at approximately 20° C. and 100% relative atmospheric humidity for 1 day. The plants are then placed in a greenhouse at approximately 21° C. and approximately 90% relative atmospheric humidity. The plants are then moistened and placed in an incubation cabin for 1 day.
Evaluation is carried out 6 days after the inoculation. 0% means an efficacy which corresponds to that of the control, whereas an efficacy of 100% means that no infection is observed.

As for `CO/N=C(\C)C(C)=NN` [3-hydrazono-butan-2-one O-methyl oxime], in data set [1], the chromatographic logP (usually lipophilicity estimated from chromatographic retention) came out at 0.97.
In the case of `COC(=O)/C=C(/OC)c1ccccc1C=NN=C(C)c1cccc(C(F)(F)F)c1` [Example 1, methyl 3-methoxy-3-(2-{[1-(3-trifluoromethylphenyl)-ethylidene]-hydrazonomethyl}-phenyl)-acrylate], the values for the efficacy result in the data set with Sphaerotheca fuliginea, with Venturia inaequalis and in the data set on Plasmopara viticola were “more than 80%”, “more than 90%” and “more than 80%”, respectively. In data set [1], this compound displayed a chromatographic logP of 4.4.

For the origin of these results see patent US6410600B1, “Azine used as fungicides” (Bayer Aktiengesellschaft, priority 1998, dated 2002).
